The numbers were not newly measured in patent US12478681B2, “Non-activated, amorphous, pH neutral, two-part bedside-ready clay delivery system that treats pathogen infections in humans and animals” (priority 2019, dated 2025), which cites them from elsewhere.

On to elemental iron, for which the “Oral dose that can cause severe toxicity, morbidity and mortality” value is given as over 60 mg/kg; the “Oral dose that can have toxicity symptoms” value was 20 to 60 mg/kg; the “Oral dose that is non-toxic” value is listed as under 20 mg/kg.
